Reference: ChEMBL document CHEMBL1201862, “PubChem BioAssay data set” (2004)
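Exposure lasted 48 hours, with cells grown in 96-well plates and compounds tested at five concentrations. GI50: concentration for 50% inhibition of growth.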 Active and inactive are the calls of the source. Cut-off read from the data, not from the text of the source: active = GI50 up to about 1.1 µM and inactive = higher.

Columns and labels:
Experiment in all cases: inhibition of tumour cell growth, NCI panel, 48 h
[1] = system: HOP-18
[2] = system: IGROV-1
[3] = system: OVCAR-3
[4] = system: NCI-H460
[5] = system: OVCAR-5
[6] = system: NCI-H522
[7] = system: K562
[8] = system: UACC-62
[9] = system: A549
[10] = system: SNB-78
[11] = system: DMS-273
[12] = system: A498
[13] = system: NCI-H226
[14] = system: M19-MEL
[15] = system: SK-MEL-28
[16] = system: HCC 2998
[17] = system: LOX IMVI
[18] = system: ACHN
[19] = system: SK-OV-3
[20] = system: CAKI-1
[21] = system: HCT-15
[22] = system: TK-10
[23] = system: SF-268
[24] = system: LXFL 529
[25] = system: RXF 631
[26] = system: SN12C
[27] = system: U-251
[28] = system: COLO 205
[29] = system: MOLT-4
[30] = system: RPMI-8226
[31] = system: KM12
[32] = system: OVCAR-8
[33] = system: 786-0
[34] = system: HCT-116
[35] = system: KM-20L2
[36] = system: DLD-1
[37] = system: SNB-75
[38] = system: SK-MEL-2
[39] = system: SK-MEL-5
[40] = system: OVCAR-4
[41] = system: UO-31
[42] = system: CCRF-CEM
[43] = system: SW-620
[44] = system: M14
[45] = system: HL-60
[46] = system: HOP-62
[47] = system: NCI-H23
[48] = system: EKVX
[49] = system: DMS-114
[50] = system: SNB-19
[51] = system: RXF 393
[52] = system: HOP-92
[53] = system: UACC-257
[54] = system: SF-295
[55] = system: SF-539
[56] = system: HT-29
[57] = system: XF498
[58] = system: SR
[59] = system: Malme-3M

Question: What does the source list for `COc1cc(OC)c2c(c1)C(=O)C(CC1(C)OCCCO1)=CC2=O`?
Answer: GI50 [1]: 13 µM (inactive); GI50 [2]: 17.9 µM (inactive); GI50 [3]: 8.55 µM (inactive); GI50 [4]: 18.6 µM (inactive); GI50 [5]: 16.9 µM (inactive); GI50 [6]: 3.43 µM (inactive); GI50 [7]: 2.74 µM (inactive); GI50 [8]: 5 µM (inactive); GI50 [9]: 18.9 µM (inactive); GI50 [10]: 7.96 µM (inactive); GI50 [11]: 7.48 µM (inactive); GI50 [12]: 18.4 µM (inactive); GI50 [13]: 19.6 µM (inactive); GI50 [14]: 3.37 µM (inactive); GI50 [15]: 11.6 µM (inactive); GI50 [16]: 17.9 µM (inactive); GI50 [17]: 4.34 µM (inactive); GI50 [18]: 9.75 µM (inactive); GI50 [19]: 20 µM (inactive); GI50 [20]: 8 µM (inactive); GI50 [21]: 3.92 µM; GI50 [22]: 12.5 µM (inactive); GI50 [23]: 13.9 µM (inactive); GI50 [24]: 6.12 µM (inactive); GI50 [25]: 22.3 µM (inactive); GI50 [26]: 14 µM (inactive); GI50 [27]: 17.4 µM (inactive); GI50 [28]: 14.3 µM (inactive); GI50 [29]: 2.05 µM (inactive); GI50 [30]: 3.78 µM (inactive); GI50 [31]: 14.3 µM (inactive); GI50 [32]: 9.27 µM (inactive); GI50 [33]: 9.77 µM (inactive); GI50 [34]: 5.35 µM (inactive); GI50 [35]: 14.1 µM (inactive); GI50 [36]: 4.17 µM (inactive); GI50 [37]: 11 µM (inactive); GI50 [38]: 15.2 µM (inactive); GI50 [39]: 8.04 µM (inactive); GI50 [40]: 7.62 µM (inactive); GI50 [41]: 11 µM (inactive); GI50 [42]: 1.74 µM (inactive); GI50 [43]: 7.57 µM (inactive); GI50 [44]: 13 µM (inactive); GI50 [45]: 2.17 µM (inactive); GI50 [46]: 19.1 µM (inactive); GI50 [47]: 13.2 µM (inactive); GI50 [48]: 14.3 µM (inactive); GI50 [49]: 6.11 µM (inactive); GI50 [50]: 18.2 µM (inactive); GI50 [51]: 3.54 µM (inactive); GI50 [52]: 1.83 µM (inactive); GI50 [53]: 13 µM (inactive); GI50 [54]: 14.6 µM (inactive); GI50 [55]: 12.8 µM (inactive); GI50 [56]: 13.8 µM (inactive); GI50 [57]: 9.48 µM (inactive); GI50 [58]: 1.29 µM (inactive); GI50 [59]: 8.45 µM (inactive)
